{"source": "patent US20250320246A1", "about": "“3-AZASTEROID COMPOUNDS FOR THE TREATMENT OF DISEASES RELATED TO MITROCHONDRIAL FUNCTION” (NZP UK LIMITED, priority 2022, published 2025)", "assay_type_in_all_cases": "cell-based, human", "key": {"[1]": {"test_system": "iNeurons from sPD patients", "assay": "Activated caspase 3 levels (apoptosis) in iNeurons from sPD patients", "protocol": "(§1) The fibroblasts lines and iNPC lines have previously been characterised and published in Carling et al, 2020.\n(§2) Briefly, iNPCs are plated in a 6-well plate and cultured for 2 days in DMEM/F-12 medium with Glutamax™ supplemented with 1% NEAA, 2% B27 (Gibco) and 2.5 μM of DAPT. On day 3, DAPT is removed and the medium is supplemented with 1 μM smoothened agonist (SAG) and FGF8 (75 ng/ml) for additional 10 days. Neurons are replated at this stage. Subsequently SAG and FGF8 are withdrawn and replaced with BDNF (30 ng/ml), GDNF (30 ng/ml), TGF-b3 ([…]) and dcAMP (2 mM, Sigma) for 15 days, as previously described Schwartzentruber et al, 2020 and Carling et al, 2020. Dopaminergic neurons were treated with compounds at concentrations of 0.1 nM, 1 nM, 3 nM, 10 nM, 30 nM and 100 nM dosing every 3 days for the last 12 days of differentiation.\n(§3) Cells are plated into 96 well plates and fixed using 4% paraformaldehyde for 30 minutes. After PBS washes cells are permeabilised using 0.1% Triton™ X-100 for 10 minutes and blocked using 5% goat serum for 1 hour. Cells are incubated with primary antibodies βIII tubulin (Millipore); activated caspase 3 (Cell Signaling); at 4° C. for 16 hours. Cells are washed using PBS-Tween® and incubated with Alexa Fluor™-conjugated secondary antibodies 488 and 568 (Invitrogen) and Hoescht (Sigma) 1 μM prior to imaging. Imaging was performed using the Opera Phenix™ high content imaging system (Perkin Elmer)."}, "[2]": {"test_system": "iNeurons from sPD patients", "assay": "Mitochondrial reactive oxygen species (ROS) in iNeurons from sPD patients", "conditions": "sPD patient iNeurons treated; untreated sPD patients 115", "protocol": "as §1, §2\n(§4) iNeurons were treated every 3 days for the last 12 days of the differentiation protocol. Cells are plated in 96 well plates; for live imaging cells are incubated for one hour at 37° C. with 80 nM tetramethlyrhodamine (TMRM), 1 μM LysoTracker® Green (Invitrogen) and Hoechst Stain solution (Sigma) at 1 μM before imaging using Opera Phenix™. Cellular ATP measurements are undertaken using ATPlite kit (Perkin Elmer) as per manufacturer's instructions. Mitochondrial reactive oxygen species generation was assessed using mitochondrial NpFR2 (probe; a kind gift from Dr Liz New, University of Sydney, Australia) at 20 μM and Hoechst stain solution at 1 μM for 30 mins at 37° C., then the dyes are removed and cells images using Opera Phenix™. Images generated from the live imaging experiments were analysed using Harmony® (Perkin Elmer software). We developed protocols in order to segment nucleus, cell boundary and processes, mitochondria, lysosomes, autophagosomes. We only analysed the z projection images collected from the z stacks."}, "[3]": {"test_system": "sporadic PD patient fibroblasts", "assay": "Cellular ATP levels in sporadic PD patient fibroblasts, full ATP assay", "conditions": "Homo sapiens, Fibroblast, 24 h, 3 sporadic PD patient fibroblasts"}, "[4]": {"test_system": "iNeurons from sPD patients", "assay": "Cellular ATP in iNeurons (dopaminergic neurons derived from sPD patients)", "protocol": "as §1, §2, §4"}, "[5]": {"test_system": "iNeurons from sPD patients", "assay": "Neuronal morphology (elongation) in iNeurons from sPD patients", "protocol": "as §1, §2, §3\niNeurons were treated every 3 days for the last 12 days of the differentiation protocol. […] Mitochondrial reactive oxygen species generation was assessed using mitochondrial NpFR2 (probe; a kind gift from Dr Liz New, University of Sydney, Australia) at 20 μM and Hoechst stain solution at 1 μM for 30 mins at 37° C., then the dyes are removed and cells images using Opera Phenix™. Images generated from the live imaging experiments were analysed using Harmony® (Perkin Elmer software). […] We only analysed the z projection images collected from the z stacks."}, "[6]": {"test_system": "sporadic Parkinson's disease patient fibroblast lines", "assay": "Mitochondrial respiration (oxygen consumption rate), Seahorse Mito Stress test", "conditions": "50 nM for 24 hours, sPD fibroblasts", "protocol": "Oxygen consumption rate (OCR) was measured by the Agilent Seahorse Mito Stress test using a 24-well Agilent Seahorse XF analyzer machine (Agilent). Human fibroblasts where plated at a density of 60,000 cells per well. Cells were treated with compound 50 nM for 24 hours prior to measurement. 3 measurements of OCR were taken in each state: basal state, after addition of oligomycin (0.5 μM), FCCP (0.5 μM) and rotenone (1 μM). A cell count was then done on a fixed assay plate using a Hoechst dye (1 μM). Data presented is normalized to cell number."}, "[7]": {"conditions": "sPD derived dopaminergic neurons"}}, "note": "pEC50: −log10 of the molar value."}
{"smiles": "C[C@H](CCCC(=O)O)[C@H]1CC[C@H]2[C@@H]3[C@@H](O)C[C@@H]4CNCC[C@]4(C)[C@H]3CC[C@]12C.Cl", "note": "[Compound 28b, 3-Aza-7β-hydroxy-25-homo-5β-cholan-25-oic acid hydrochloride]", "values": [{"measurement": "apoptosis levels (as measured by activated caspase 3 levels), in words", "setting": "[1]; [7]", "value": "reducing apoptosis levels"}, {"measurement": "Activated caspase 3 levels", "setting": "[1]; sPD patient iNeurons treated, untreated sPD patients 162", "value": "138 % of level in iNeurons from Controls"}, {"measurement": "ROS normalisation (% of controls)", "setting": "[2]", "value": "109 % of controls"}, {"measurement": "pEC50", "setting": "[3]; 8-point range 0.06 nM-300 nM", "value": 7.48}, {"measurement": "Emax at 0.3 µM", "setting": "[3]; max response with highest dose of compound (300 nM), read-out: ATP % of vehicle, top %", "value": 138, "unit": "%"}, {"measurement": "activity at 60 pM", "setting": "[3]; max response with lowest dose of compound (0.06 nM), read-out: ATP % of vehicle, bottom %", "value": 94.6, "unit": "%"}, {"measurement": "pEC50", "setting": "[4]; Homo sapiens, Neuron, sPD patient iNeurons, dosing every 3 days for last 12 days of differentiation", "value": 8.30}, {"measurement": "effect on mitochondrial parameters in sPD derived dopaminergic neurons", "setting": "[4]; both mitochondrial parameters (Table 3)", "value": "provides a protective effect on both mitochondrial parameters"}, {"measurement": "ATP normalisation (% of controls)", "setting": "[4]; sPD patient iNeurons treated, untreated sPD patients 50", "value": "94.3 % of controls"}, {"measurement": "neuronal morphology, in words", "setting": "[5]; [7]", "value": "improving neuronal morphology"}, {"measurement": "Neuronal morphology (elongation; % controls)", "setting": "[5]; sPD patient iNeurons treated, untreated sPD patients 48", "value": 68, "unit": "% controls"}, {"measurement": "basal mitochondrial respiration", "setting": "[6]; p<0.05, vehicle sPD reduced 30% vs controls", "value": "increases basal respiration in the sPD fibroblasts to control levels"}, {"measurement": "ATP linked respiration", "setting": "[6]; to a lesser extent, vehicle sPD reduced 23% vs controls", "value": "Increases are also seen"}, {"measurement": "spare respiratory capacity", "setting": "[6]; to a lesser extent, vehicle sPD reduced 42% vs controls", "value": "Increases are also seen"}]}
